One may read the melting point as the temperature, or range, at which the solid turns liquid.

`O=C(Nc1ccccn1)Nc1csc(-c2ccccn2)n1` [Example 5, N-[2-(2-Pyridinyl)-4-thiazolyl]-N′-2-pyridinylurea] returned a melting point of 233 to 235 °C. `CCCc1cccc(NC(=O)Nc2csc(-c3ccnc(CC)c3)n2)n1` [Example 14, N-[2-(2-Ethyl-4-pyridinyl)-4-thiazolyl]-N′-2-(6-propylpyridinyl)urea]: the melting point fell in the range of 204 to 206 °C.

With `CN1CCN(c2cccc(NC(=O)Nc3csc(-c4ccncc4)n3)n2)CC1` [Example 31, N-[2-(4-Pyridinyl)-4-thiazolyl]-N′-2-[6-(1-methyl-4-piperazinyl)pyridinyl]urea], the melting point lay in the range of 251 to 253 °C.

Regarding `O=C(Nc1cccc(NCCCN2CCOCC2)n1)Nc1csc(-c2ccncc2)n1` [Example 33], the melting point was in the range of 215 to 217 °C.

For `NC(=O)c1ccc(NC(=O)Nc2csc(-c3ccncc3)n2)nc1` [Example 34, [[(2-(4-Pyridinyl)-4-thiazolylamino)carbonyl]amino]-2-pyridinyl-5-carboxamide], the melting point was in the range of 255 to 257 °C. In turn, `CN(C)CCNc1cccc(NC(=O)Nc2csc(-c3ccncc3)n2)n1` [Example 35, N-[2-(4-Pyridinyl)-4-thiazolyl]-N′-2-[6-(N″,N″-aminoethylamino)pyridinyl]urea] came in with a melting point of 210 to 212 °C.

`CC(C)(C)c1cc(NC(=O)Nc2csc(-c3cccnc3)n2)no1` [Example 37, N-[2-(3-Pyridinyl)-4-thiazolyl]-N′-[5-(1,1-dimethylethyl)-3-isoxazolyl]urea] registered a melting point of 230 to 232 °C.

Compound `Cc1ccc(NC(=O)Nc2csc(-c3ccccn3)n2)nc1` [Example 38, N-[2-(2-Pyridinyl)-4-thiazolyl]-N′-2-(5-methylpyridinyl)urea] showed a melting point of 228 to 230 °C. On to `Cc1cc(C)nc(NC(=O)Nc2csc(-c3ccccn3)n2)c1` [Example 40, N-[2-(2-Pyridinyl)-4-thiazolyl]-N′-2-(4,6-dimethylpyridinyl)urea], for which the melting point was in the range of 232 to 234 °C. `Cc1ccc2nc(NC(=O)Nc3csc(-c4ccccn4)n3)sc2c1` [Example 41, N-[2-(2-Pyridinyl)-4-thiazolyl]-N′-2-(6-methylbenzthiazolyl)urea] had a melting point of 263 to 265 °C.

Compound `Cc1ccnc(NC(=O)Nc2csc(-c3ccccn3)n2)c1` [Example 42, N-[2-(2-Pyridinyl)-4-thiazolyl]-N′-2-(4-methylpyridinyl)urea] returned a melting point of 217 to 219 °C.

As for `CCc1cccc(NC(=O)Nc2csc(-c3ccccn3)n2)n1` [Example 44, N-[2-(2-Pyridinyl)-4-thiazolyl]-N′-2-(6-ethylpyridinyl)urea], the melting point fell in the range of 213 to 215 °C. The compound `CCCc1cccc(NC(=O)Nc2csc(-c3ccc(OC)cc3)n2)n1` [Example 45, N-[2-(4-Methoxyphenyl)-4-thiazolyl]-N′-2-(6-propylpyridinyl)urea] came in with a melting point of 223 to 225 °C. Take `CCCc1cccc(NC(=O)Nc2csc(-c3ccc(O)cc3)n2)n1` [Example 46, N-[2-(4-Hydroxyphenyl)-4-thiazolyl]-N′-2-(6-propylpyridinyl)urea]: the melting point fell in the range of 227 to 229 °C.

`CCCc1cccc(NC(=O)Nc2csc(-c3cccc(OC)c3)n2)n1` [Example 47, N-[2-(3-Methoxyphenyl)-4-thiazolyl]-N′-2-(6-propylpyridinyl)urea] registered a melting point of 192 to 194 °C. `COc1cccc(-c2nc(NC(=O)Nc3ccccn3)cs2)c1` [Example 48, N-[2-(3-Methoxyphenyl)-4-thiazolyl]-N′-2-pyridinylurea] returned a melting point of 201 to 203 °C. As for `CCc1ccnc(NC(=O)Nc2csc(-c3ccccn3)n2)c1` [Example 50, N-[2-(2-Pyridinyl)-4-thiazolyl]-N′-2-(4-ethylpyridinyl)urea], the melting point was 196 to 198 °C.

The compound `CCCc1cccc(NC(=O)Nc2csc(-c3ccccn3)n2)n1` [Example 51, N-[2-(2-Pyridinyl)-4-thiazolyl]-N′-2-(6-propylpyridinyl)urea] displayed a melting point of 210 to 212 °C.

Compound `CCCc1cccc(NC(=O)Nc2cccc(-c3ccncc3)c2)n1` [Example 54, N-[3-(4-Pyridinyl)phenyl]-N′-2-(6-propylpyridinyl)urea] yielded a melting point of 195 to 198 °C.

(Values after patent publication US7196104B2, “Thiazolyl urea compounds and methods of uses” (Amgen, Inc., priority 2000, dated 2007).)
